Assay results taken from patent EP1759703A1, “IMMUNISTIMULATIVE AND INTERFERONOGENOUS AGENT” (Akciju Sabiedriba "Olainfarm", priority 2004, dated 2006).
Where a name gives a salt, the structure may show the parent alone. Read-outs that look alike come from different tables or passages of the source.

Legend:
Solubility (qualitative) = type: physicochemical
[1] = test system: natural killers (NK-cells); assay: NK-cell functional activity test (lysis of K-562 target cells, fluorescent tag); type: cell-based; settings: Homo sapiens, ratio of treated to untreated NK-cells activity, read-out: Relative value of change of NK-activity over DMAAM compounds
From the text: Immunostimulating activity. Determination of the effect of claimed compounds on functional activity of immunocomptent human cells.
Immunocompetent cells - natural killers (NK-cells) - relate to the system of natural human body resistance. Identification of the status of this immune system link gives important information about the state of the body immune status. To assess the state of this immune system link depending on the presence of studied compounds a functional test was used to determine the NK-cells capacity to expose to lysis the target cells of tumor myeloblast culture K-562, the identification of which was implemented using a fluorescent tag. NK-cells activity was identified in accordance with the number of the target cells K-562 "killed" by them which were evaluated based on the intensity of fluorescent glowing in the area characteristic for killed cells and against control results (i.e. when NK-cells are absent).
The influence level of the studied drugs on NK-cells activity was assessed based on the value of the NK-cells activity ratio when treated with these medications to the activity of untreated NK-cells in the lysis process of target cells of the test culture, line K-562.
To select medication doses and concentrations while studying their activity, their minimal toxic dose against target cells and mononuclear cells of peripheral blood was preliminarily measured.
This defines a considerable immunostimulating effect of offered substances.
In addition immunostimulating effect mainly occurs in polymeric compounds (PVASA - DMAAM, VA - VASA - DMAAM, VP - VASA - DMAAM), and with an increase of drug concentration their stimulating impact on NK-cells activity enhances. Table 1. Change of NK-cells activity over 3.5-dimethyl-1-adamantylamine.

[2] = test system: mononuclear cells of peripheral blood (NK-cells); type: cell-based, human; settings: IU of interferon antiviral activity as regards the virus of vesicular stomatitis
[3] = test system: white mice of both sexes, line "Balb"; assay: Acute toxicity, single oral administration, mice; type: in vivo
Experimental: The toxicity level of claimed compounds was assessed according to a general index of acute toxicity - average fatal dose of LD50. The study was held with a single oral administration of the medication to white mice of both sexes, line "Balb", weight 18 - 20 g, and to white rats, line "Vistar", weight 130 - 250 g (female) and 225 - 370 g (male). The medications were administered to mice in the dose ranging from 25 to 1100 mg/kg, and to rats in the range of 480 - 2315 mg/kg.

| Structure (SMILES) | solubility in water (Solubility (qualitative)) | fold induction at 2 µg/mL ([1]; K562, concentration 2 mcg/ml (as calculated per DMAAM)) | fold induction at 10 µg/mL ([1]; K562, concentration 10 mcg/ml (as calculated per DMAAM)) | fold induction at 50 µg/mL ([1]; K562, concentration 50 mcg/ml (as calculated per DMAAM)) | Interferon induction activity of NK-cells ([2]; concentration 2 mcg/ml (as calculated per DMAAM)) [IU/ml] | Interferon induction activity of NK-cells ([2]; concentration 10 mcg/ml (as calculated per DMAAM)) [IU/ml] | Interferon induction activity of NK-cells ([2]; concentration 50 mcg/ml (as calculated per DMAAM)) [IU/ml] | LD50 [3] [mg/kg] |
| --- | --- | --- | --- | --- | --- | --- | --- | --- |
| CC12CC3CC(C)(C1)CC(N)(C3)C2 [3.5-dimethyl-1-adamantylamine] | insoluble in water |  |  |  |  |  |  |  |
| CC12CC3CC(C)(C1)CC(N)(C3)C2 [HC - DMAAM, hydrochloride 3.5-dimethyl-1-adamantylamine] |  | 1 | 1.2 | 1.6 | 5.77 | 13.00 | 14.46 | 363 |
